Where a SMILES comes first, the peptide text is derived from it.

The nature of data set [1]: Solubility in aqueous buffer. It counts as physicochemical. As to conditions: pH 7.2, aqueous buffer.
The nature of data set [2]: Stability of the maleimide moiety of MAL-FMS-NHS in aqueous solutions (GSH/DTNB). It counts as physicochemical. As for the experimental part:
MAL-FMS-NHS (1 mM) was incubated at room temperature in H2O (pH 6.0), in 0.007 M acetic acid (pH˜4.0), in 0.1 M phosphate buffer (pH 7.4), and in 0.1 M NaHCO3 (pH 8.5). At the indicated time points, aliquots were allowed to react with a slight excess of GSH (15 min at pH 7.2) and the concentration of unreacted GSH was determined with 5,5-dithiobis(2-nitrobenzoic acid) (DTNB).
Stability of the MAL-functional moiety in aqueous solutions. In order to test the stability of the maleimide function of MAL-FMS-NHS in aqueous solutions at different pH values, MAL-FMS-NHS (1 mM) was incubated at room temperature in water (pH 6.0), in 0.007M acetic acid (pH˜4.0), in 0.1M phosphate buffer (pH 7.4), and in 0.1M NaHCO3 (pH 8.5). At several time points, aliquots were allowed to react with a slight excess of reduced glutathione (GSH) (15 min at pH 7.2) and the concentration of unreacted GSH was determined with DTNB (5,5′-dithio-bis-2-nitrobenzoic acid, Ellman's reagent), by measuring the absorbance of the produced yellow colored 5-thio-2-nitrobenzoic acid (TNB) at 405 or 412 nm.

Data set [3] in a line: physchem. As to conditions: buffer, pH 8.5.

`O=C(CCN1C(=O)C=CC1=O)Nc1ccc2c(c1)C(COC(=O)ON1C(=O)CCC1=O)c1cc(S(=O)(=O)O)ccc1-2` (centres unmarked) [MAL-FMS-NHS, N-[2-(maleimido-propionylamino)-7-sulfo-fluoren-9-yl-methoxycarbonyloxy]-succinimide] came in with a solubility in data set [1] above 10000 µg/mL. Also, in data set [2] (0.1 M NaHCO3 aqueous solution, 0.1M NaHCO3 pH 8.5, room temperature, read-out: t1/2 of destruction of the maleimide moiety (converted)), the half-life at 1 mM is 2.7 ± 0.3 h. The “stability of the maleimide function” value in data set [2] (pH 4 to 6, over a day or two) is “fully stable”; in data set [2] (pH 7.2), “stable over a period of several hours”.
Compound `CC[C@H](C)[C@H](NC(=O)[C@H](CCC(=O)O)NC(=O)[C@H](C)NC(=O)OCC1c2cc(NC(=O)CCN3C(=O)C=CC3=O)ccc2-c2ccc(S(=O)(=O)O)cc21)C(=O)N[C@@H](CO)C(=O)NCC(=O)N[C@@H](CCC(N)=O)C(=O)N[C@@H](CC(C)C)C(=O)N[C@@H](CO)C(=O)N[C@@H](Cc1ccc(O)cc1)C(=O)N[C@H](C(=O)N[C@@H](CCCNC(=N)N)C(=O)N[C@@H](CC(=O)O)C(=O)N[C@H](C(=O)N[C@@H](CC(N)=O)C(=O)N[C@@H](CO)C(=O)N[C@@H](Cc1c[nH]c2ccccc12)C(=O)N[C@@H](CCC(N)=O)C(=O)N[C@@H](Cc1c[nH]cn1)C(=O)N[C@H](C(=O)N[C@@H](Cc1c[nH]c2ccccc12)C(=O)N[C@H](C(=O)N[C@@H](CC(N)=O)C(=O)N[C@H](C(=O)N[C@@H](CO)C(=O)N[C@H](C(=O)N[C@@H](CCC(=O)O)C(=O)N[C@@H](CC(N)=O)C(=O)O)[C@@H](C)CC)C(C)C)[C@@H](C)O)[C@@H](C)CC)C(C)C)C(C)C` (some centres unmarked) [Mal-FMS-Peptide 27] (HELM PEPTIDE1{[O=C1C=CC(=O)N1CCC(=O)[*:2]].[O=C(OCC1c2cc(N[*:1])ccc2-c2ccc(S(=O)(=O)O)cc21)[*:2]].A.E.I.S.G.Q.L.S.Y.V.R.D.V.N.S.W.Q.H.I.W.T.N.V.S.I.E.N}$$$$V2.0; N-terminus and C-terminus assumed) showed a half-life in data set [3] of 8.4 h.

These data come from patent publication US9433683B2, “Reversible pegylated drugs” (Yeda Research and Development Co., Ltd., priority 2003, dated 2016).
